Converted amounts (≈) assume the structure as drawn. Starred links: 1 amine or outer side, 2 acyl side, 3 side chain; linkers in the order of their positions; H or OH if unused. Positions of bridges follow the written chain, without caps; N, C: chain ends. Residues, ends and D or L forms follow the SMILES beside them. Naphthalene(2,6-diCH2) = c1cc2cc(C[*:2])ccc2cc1C[*:1]; mXylylene = c1cc(C[*:1])cc(C[*:2])c1; pXylylene = c1cc(C[*:2])ccc1C[*:1]; X1 = C(=CC[*:2])C[*:1]
Experiments:
[1] = tested on: Acinetobacter baumannii (A. baumannii); assay type: cell-based; conditions: microbroth dilution, 20-24 hours at 37° C.
Method in brief: (§1)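 MIC = lowest peptide concentration without visible bacterial growth. CLSI-based microbroth dilution, MHB or MHB II, inoculum 5×10^5 CFU/ml, 20-24 h, 37 °C.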

[2] = tested on: Escherichia coli (E. coli); assay type: cell-based; conditions: microbroth dilution, 20-24 hours at 37° C.
Method in brief: as §1

[3] = tested on: Klebsiella pneumoniae (K. pneumoniae); assay type: cell-based; conditions: microbroth dilution, 20-24 hours at 37° C.
Method in brief: as §1

[4] = tested on: Pseudomonas aeruginosa (P. aeruginosa); assay type: cell-based; conditions: microbroth dilution, 20-24 hours at 37° C.
Method in brief: as §1

[5] = tested on: Staphylococcus aureus (S. aureus); assay type: cell-based; conditions: microbroth dilution, 20-24 hours at 37° C.
Method in brief: as §1

[6] = 90 minute cytotoxicity assay (LDH release), renal toxicity; assay type: cell-based; conditions: 90 minutes of incubation, LDH release; read-out: Inhibitory Concentration at 50% Cytotoxicity (IC50) Human Renal Proximal Tubule Epithelial Cells (RPTEC)
Method in brief: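 Released lactate dehydrogenase, read as absorbance at 490 nm after 10 min with assay reagent, serves as read-out. Renal proximal tubule epithelial cells received peptide serial dilutions or vehicle for 90 min at 37° C after overnight plating.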

[7] = 48 hours cytotoxicity assay (CellTiter-Glo), liver toxicity; assay type: cell-based, human; conditions: 48 hours of incubation, CellTiter-Glo; read-out: Inhibitory Concentration at 50% Cytotoxicity (IC50) Human Liver Cells (HepG2)
Method in brief: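 Viability from CellTiter-Glo luminescence after StAMP dilution series or vehicle acted on HepG2 cells for 48 h at 37 °C. Cells were grown in EMEM plus 10% FBS and given 4 h to attach before dosing.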

Compound	Minimum Inhibitory Concentration (MIC) A. baumannii [1]	Minimum Inhibitory Concentration (MIC) E. coli [2]	Minimum Inhibitory Concentration (MIC) K. pneumoniae [3]	Minimum Inhibitory Concentration (MIC) P. aeruginosa [4]	Minimum Inhibitory Concentration (MIC) S. aureus [5]	IC50 [6]	IC50 [7]
CC[C@H](C)[C@H](NC(=O)CN)C(=O)N[C@H]1CSCC=CCSC[C@@H](C(=O)NCC(=O)N[C@@H](CCCCN)C(=O)N[C@@H](CCCCN)C(=O)N[C@H](C(=O)N[C@@H](CCCCN)C(=O)N[C@@H](CC(N)=O)C(=O)N[C@@H](CC(C)C)C(=O)N[C@@H](CC(C)C)C(=O)N[C@H](C(=O)N[C@@H](CO)C(=O)NCC(=O)N[C@@H](CC(C)C)C(=O)N[C@@H](CCCCN)C(=O)NCC(N)=O)[C@@H](C)CC)[C@@H](C)CC)NC(=O)[C@H](CC(C)C)NC(=O)[C@H](CCCCN)NC(=O)[C@H](CO)NC1=O [compound 1] (H-GICSKLCGKKIKNLLISGLKG-NH2; linker 3-7 via X1)	8 µg/mL	8 µg/mL	64 µg/mL	32 µg/mL	>64 µg/mL	> 200 µg/mL	> 200 µg/mL
CC[C@H](C)[C@H](NC(=O)CN)C(=O)N[C@@H](Cc1ccccc1)C(=O)N[C@H]1CSCc2ccc3cc(ccc3c2)CSC[C@@H](C(=O)N[C@@H](CCCCN)C(=O)N[C@@H](CC(N)=O)C(=O)N[C@@H](CC(C)C)C(=O)N[C@@H](CC(C)C)C(=O)N[C@H](C(=O)N[C@@H](CO)C(=O)NCC(=O)N[C@@H](CC(C)C)C(=O)N[C@@H](CCCCN)C(=O)NCC(N)=O)[C@@H](C)CC)NC(=O)[C@H](CCCCN)NC(=O)[C@H](CCCCN)NC(=O)CNC(=O)[C@H](C)NC(=O)[C@H](CC(C)C)NC(=O)[C@H](CCCCN)NC1=O [compound 58] (H-GIFCKLAGKKCKNLLISGLKG-NH2; linker 4-11 via Naphthalene(2,6-diCH2); N-terminus assumed)	4 µg/mL	16 µg/mL	32 µg/mL	64 µg/mL	>64 µg/mL	131 µg/mL (≈ 55.9 µM)	51 µg/mL (≈ 21.8 µM)
CC[C@H](C)[C@H](NC(=O)CN)C(=O)N[C@@H](Cc1ccccc1)C(=O)N[C@@H](CO)C(=O)N[C@@H](CCCCN)C(=O)N[C@@H](CC(C)C)C(=O)N[C@@H](C)C(=O)NCC(=O)N[C@@H](CCCCN)C(=O)N[C@@H](CCCCN)C(=O)N[C@H](C(=O)N[C@@H](CCCCN)C(=O)N[C@@H](CC(N)=O)C(=O)N[C@@H](CC(C)C)C(=O)N[C@@H](CC(C)C)C(=O)N[C@H]1CSCc2cccc(c2)CSC[C@@H](C(=O)NCC(N)=O)NC(=O)[C@H](CC(C)C)NC(=O)CNC(=O)[C@H](CO)NC1=O)[C@@H](C)CC [compound 32] (H-GIFSKLAGKKIKNLLCSGLCG-NH2; linker 16-20 via mXylylene)	2 µg/mL	2 µg/mL	8 µg/mL	16 µg/mL	>64 µg/mL	30 µg/mL (≈ 13.3 µM)	41 µg/mL (≈ 18.2 µM)
CC[C@H](C)[C@H](NC(=O)CN)C(=O)N[C@@H](Cc1ccccc1)C(=O)N[C@@H](CO)C(=O)N[C@@H](CCCCN)C(=O)N[C@@H](CC(C)C)C(=O)N[C@@H](C)C(=O)NCC(=O)N[C@@H](CCCCN)C(=O)N[C@@H](CCCCN)C(=O)N[C@H](C(=O)N[C@H]1CSCc2cccc(c2)CSC[C@@H](C(=O)N[C@@H](CO)C(=O)NCC(=O)N[C@@H](CC(C)C)C(=O)N[C@@H](CCCCN)C(=O)NCC(N)=O)NC(=O)[C@H](CC(C)C)NC(=O)[C@H](CC(C)C)NC(=O)[C@H](CC(N)=O)NC1=O)[C@@H](C)CC [compound 20] (H-GIFSKLAGKKICNLLCSGLKG-NH2; linker 12-16 via mXylylene)	8 µg/mL	8 µg/mL	16 µg/mL	16 µg/mL	64 µg/mL	25 µg/mL (≈ 11.1 µM)	40 µg/mL (≈ 17.8 µM)
CC[C@H](C)[C@H](NC(=O)CN)C(=O)N[C@@H](Cc1ccccc1)C(=O)N[C@@H](CO)C(=O)N[C@@H](CCCCN)C(=O)N[C@@H](CC(C)C)C(=O)N[C@@H](C)C(=O)NCC(=O)N[C@H]1CSCc2ccc(cc2)CSC[C@@H](C(=O)N[C@@H](CC(C)C)C(=O)N[C@@H](CC(C)C)C(=O)N[C@H](C(=O)N[C@@H](CO)C(=O)NCC(=O)N[C@@H](CC(C)C)C(=O)N[C@@H](CCCCN)C(=O)NCC(N)=O)[C@@H](C)CC)NC(=O)[C@H](CCCCN)NC(=O)[C@H]([C@@H](C)CC)NC(=O)[C@H](CCCCN)NC1=O [compound 13] (H-GIFSKLAGCKIKCLLISGLKG-NH2; linker 9-13 via pXylylene)	32 µg/mL	32 µg/mL	64 µg/mL	64 µg/mL	>64 µg/mL	> 200 µg/mL	> 200 µg/mL
CC[C@H](C)[C@H](NC(=O)CN)C(=O)N[C@@H](Cc1ccccc1)C(=O)N[C@@H](CO)C(=O)N[C@@H](CCCCN)C(=O)N[C@@H](CC(C)C)C(=O)N[C@@H](C)C(=O)NCC(=O)N[C@@H](CCCCN)C(=O)N[C@@H](CCCCN)C(=O)N[C@H](C(=O)N[C@@H](CCCCN)C(=O)N[C@@H](CC(N)=O)C(=O)N[C@@H](CC(C)C)C(=O)N[C@@H](CC(C)C)C(=O)N[C@H]1CSCc2ccc(cc2)CSC[C@@H](C(=O)NCC(N)=O)NC(=O)[C@H](CC(C)C)NC(=O)CNC(=O)[C@H](CO)NC1=O)[C@@H](C)CC [compound 33] (H-GIFSKLAGKKIKNLLCSGLCG-NH2; linker 16-20 via pXylylene)	4 µg/mL	4 µg/mL	8 µg/mL	16 µg/mL	64 µg/mL	59 µg/mL (≈ 26.2 µM)	57 µg/mL (≈ 25.3 µM)
CC[C@H](C)[C@H](NC(=O)CN)C(=O)N[C@@H](Cc1ccccc1)C(=O)N[C@@H](CO)C(=O)N[C@@H](CCCCN)C(=O)N[C@@H](CC(C)C)C(=O)N[C@@H](C)C(=O)NCC(=O)N[C@@H](CCCCN)C(=O)N[C@@H](CCCCN)C(=O)N[C@H]1CSCc2cccc(c2)CSC[C@@H](C(=O)N[C@H](C(=O)N[C@@H](CO)C(=O)NCC(=O)N[C@@H](CC(C)C)C(=O)N[C@@H](CCCCN)C(=O)NCC(N)=O)[C@@H](C)CC)NC(=O)[C@H](CC(C)C)NC(=O)[C@H](CC(N)=O)NC(=O)[C@H](CCCCN)NC1=O [compound 17] (H-GIFSKLAGKKCKNLCISGLKG-NH2; linker 11-15 via mXylylene)	>64 µg/mL	64 µg/mL	>64 µg/mL	>64 µg/mL	>64 µg/mL	> 200 µg/mL	> 200 µg/mL
CC[C@H](C)[C@H](NC(=O)CN)C(=O)N[C@@H](Cc1ccccc1)C(=O)N[C@@H](CO)C(=O)N[C@@H](CCCCN)C(=O)N[C@@H](CC(C)C)C(=O)N[C@@H](C)C(=O)N[C@H]1CSCc2cccc(c2)CSC[C@@H](C(=O)N[C@@H](CC(N)=O)C(=O)N[C@@H](CC(C)C)C(=O)N[C@@H](CC(C)C)C(=O)N[C@H](C(=O)N[C@@H](CO)C(=O)NCC(=O)N[C@@H](CC(C)C)C(=O)N[C@@H](CCCCN)C(=O)NCC(N)=O)[C@@H](C)CC)NC(=O)[C@H]([C@@H](C)CC)NC(=O)[C@H](CCCCN)NC(=O)[C@H](CCCCN)NC1=O [compound 10] (H-GIFSKLACKKICNLLISGLKG-NH2; linker 8-12 via mXylylene)	4 µg/mL	4 µg/mL	8 µg/mL	16 µg/mL	32 µg/mL	17 µg/mL (≈ 7.37 µM)	18 µg/mL (≈ 7.8 µM)
CC[C@H](C)[C@H](NC(=O)CN)C(=O)N[C@@H](Cc1ccccc1)C(=O)N[C@@H](CO)C(=O)N[C@@H](CCCCN)C(=O)N[C@@H](CC(C)C)C(=O)N[C@@H](C)C(=O)NCC(=O)N[C@@H](CCCCN)C(=O)N[C@H]1CSCc2ccc(cc2)CSC[C@@H](C(=O)N[C@@H](CC(C)C)C(=O)N[C@H](C(=O)N[C@@H](CO)C(=O)NCC(=O)N[C@@H](CC(C)C)C(=O)N[C@@H](CCCCN)C(=O)NCC(N)=O)[C@@H](C)CC)NC(=O)[C@H](CC(N)=O)NC(=O)[C@H](CCCCN)NC(=O)[C@H]([C@@H](C)CC)NC1=O [compound 15] (H-GIFSKLAGKCIKNCLISGLKG-NH2; linker 10-14 via pXylylene)	16 µg/mL	8 µg/mL	32 µg/mL	32 µg/mL	>64 µg/mL	82 µg/mL (≈ 36.4 µM)	88 µg/mL (≈ 39.1 µM)

— patent US20240391965A1, “STAPLED ANTIMICROBIAL PEPTIDES (STAMPS) AND USES THEREOF” (Lytica Therapeutics, Inc., priority 2021, published 2024)
